Test results as given in US12428406B2 (PMV Pharmaceuticals, Inc., priority 2019, dated 2025).

What follows are compounds tested against T1, p53 Y220C (Homo sapiens, UniProt P04637, Y220C) (assay: In vitro DNA binding activity assay (HTRF / TR-FRET): stabilization of p53 Y220C and increase of its DNA binding activity). Conditions: recombinant His-tagged p53 Y220C DNA binding domain (aa 94-312), biotin-labeled consensus DNA, incubated at 27° C. or 29° C. for 60 min.
T1 construct: The recombinant protein was a truncation mutant containing only amino acids 94-312 of p53; made in house; host or cells: E. coli
T1 sequence (P04637 94-312, change not shown): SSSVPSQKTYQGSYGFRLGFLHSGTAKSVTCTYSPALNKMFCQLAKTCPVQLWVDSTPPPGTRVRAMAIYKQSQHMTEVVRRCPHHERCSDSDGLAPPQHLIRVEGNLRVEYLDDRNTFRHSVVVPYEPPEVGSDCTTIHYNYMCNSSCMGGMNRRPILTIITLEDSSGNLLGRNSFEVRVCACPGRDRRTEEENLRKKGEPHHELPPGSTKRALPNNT
Type: biochemical
Procedure, shortened: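 Stabilization of the mutant is inferred from increased binding of His-tagged p53 Y220C to a biotin-labeled consensus DNA, detected by HTRF with europium-streptavidin and APC-anti-His antibody. The concentration giving a 50% rise over compound-free binding is reported as SC150.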
With `CNC(=O)c1ccc(NCC#Cc2cc3c(N[C@H]4CC[C@H](N(C)C)CC4)cccc3n2CC(F)(F)F)c(OCCF)c1` [Compound 104A, 3-(2-fluoroethoxy)-N-methyl-4-{[3-(4-{[(1R,4R)-4-(dimethyl-amino)cyclohexyl]amino}-1-(2,2,2-trifluoro-ethyl)-1H-indol-2-yl)prop-2-yn-1-yl]amino}benzamide] the “SC150 (concentration of the compound required to increase the DNA binding activity by 50%)” value was “+ (+ = 0 μM ≤ SC150 < 0.05 μM)”.
In the case of `CCNC(=O)c1ccc(NCC#Cc2cc3c(N[C@H]4CC[C@H](N(C)CCOC)CC4)cccc3n2CC(F)(F)F)c(OC)c1` [Compound 153A, N-ethyl-3-methoxy-4-((3-(4-((4-((2-methoxyethyl)(methyl)amino)cyclohexyl)amino)-1-(2,2,2-trifluoroethyl)-1H-indol-2-yl)prop-2-yn-1-yl)amino)benzamide], the “SC150 (concentration of the compound required to increase the DNA binding activity by 50%)” value is reported as “+ (+ = 0 μM ≤ SC150 < 0.05 μM)”.
`COCC(O)CN1CCC(Nc2cccc3c2cc(C#CCNc2ccc(S(=O)(=O)N(C)C)cc2OC)n3CC(F)(F)F)CC1` (stereo not drawn) [Compound 622A] was tested, and the “SC150 (concentration of the compound required to increase the DNA binding activity by 50%)” value was “+ (+ = 0 μM ≤ SC150 < 0.05 μM)”.
`CNC(=O)c1ccc(NCC#Cc2cc3c(N[C@H]4CC[C@H](N5CC6(COC6)C5)CC4)cccc3n2CC(F)(F)F)c(OCCF)c1` [Compound 240A, 3-(2-fluoroethoxy)-N-methyl-4-{[3-(4-{[(1R,4R)-4-{2-oxa-6-azaspiro[3.3]heptan-6-yl}cyclohexyl]amino}-1-(2,2,2-trifluoroethyl)-1H-indol-2-yl)prop-2-yn-1-yl]amino}benzamide] was tested, and the “SC150 (concentration of the compound required to increase the DNA binding activity by 50%)” value was “+ (+ = 0 μM ≤ SC150 < 0.05 μM)”.
In the case of `CS(=O)(=O)c1ccc(NCC#Cc2cc3c(N[C@H]4CC[C@H](N5CCC6(CC5)COC6)CC4)cccc3n2CC(F)(F)F)c(OCC#N)c1` [Compound 389A, 2-(5-methanesulfonyl-2-{[3-(4-{[(1R,4R)-4-{2-oxa-7-azaspiro[3.5]nonan-7-yl}cyclohexyl]amino}-1-(2,2,2-trifluoroethyl)-1H-indol-2-yl)prop-2-yn-1-yl]amino}phenoxy)acetonitrile], the “SC150 (concentration of the compound required to increase the DNA binding activity by 50%)” value is reported as “+ (+ = 0 μM ≤ SC150 < 0.05 μM)”.
With `COc1cc(C(N)=O)ccc1NCC#Cc1cc2c(N[C@H]3CC[C@H](N(C)C)CC3)cccc2n1CC(F)(F)F` [Compound 73A, 3-methoxy-4-{[3-(4-{[(1R,4R)-4-(dimethyl-amino)cyclohexyl]amino}-1-(2,2,2-trifluoroethyl)-1H-indol-2-yl)prop-2-yn-1-yl]amino}benzamide] the “SC150 (concentration of the compound required to increase the DNA binding activity by 50%)” value was “+ (+ = 0 μM ≤ SC150 < 0.05 μM)”.
`COc1cc(S(=O)(=O)N2CCOCC2)ccc1NCC#Cc1cc2c(N[C@H]3CC[C@@H](N(C)C)CC3)cccc2n1CC(F)(F)F` [Compound 68A, (1S,4S)-N4-[2-(3-{[2-methoxy-4-(morpholine-4-sulfonyl)phenyl]amino}prop-1-yn-1-yl)-1-(2,2,2-trifluoro-ethyl)-1H-indol-4-yl]-N^1,N^1-dimethyl-cyclohexane-1,4-diamine] was tested, and the “SC150 (concentration of the compound required to increase the DNA binding activity by 50%)” value was “+ (+ = 0 μM ≤ SC150 < 0.05 μM)”.
With `CNS(=O)(=O)c1ccc(NCC#Cc2cc3c(NC4CCN(CCOC)CC4)cccc3n2CC(F)(F)F)c(OC)c1` [Compound 617A, 3-methoxy-4-{[3-(4-{[1-(2-methoxyethyl)piperidin-4-yl]amino}-1-(2,2,2-trifluoroethyl)-1H-indol-2-yl)prop-2-yn-1-yl]amino}-N-methylbenzene-1-sulfonamide] the “SC150 (concentration of the compound required to increase the DNA binding activity by 50%)” value was “+ (+ = 0 μM ≤ SC150 < 0.05 μM)”.
`CN1CCC(Nc2cccc3c2cc(C#CCNC(=O)c2cccnc2)n3CC(F)(F)F)CC1` [Compound 505A, N-(3-{4-[(1-methylpiperidin-4-yl)amino]-1-(2,2,2-trifluoroethyl)-1H-indol-2-yl}prop-2-yn-1-yl)pyridine-3-carboxamide] was tested, and the “SC150 (concentration of the compound required to increase the DNA binding activity by 50%)” value was “+++ (+++ = 0.1 μM ≤ SC150 < 0.2 μM)”.
In the case of `CNC(=O)c1ccc(NCC#Cc2cc3c(N[C@H]4CC[C@H](N5CC6(COC6)C5)CC4)cccc3n2CC(F)(F)F)c(OCCOC)c1` [Compound 236A, 3-(2-methoxyethoxy)-N-methyl-4-{[3-(4-{[(1R,4R)-4-{2-oxa-6-azaspiro[3.3]heptan-6-yl}cyclohexyl]amino}-1-(2,2,2-trifluoroethyl)-1H-indol-2-yl)prop-2-yn-1-yl]amino} benzamide], the “SC150 (concentration of the compound required to increase the DNA binding activity by 50%)” value is reported as “+ (+ = 0 μM ≤ SC150 < 0.05 μM)”.
For `COc1cc(C(N)=O)ccc1NCC#Cc1cc2c(N[C@@H]3CCO[C@@H](C)C3)cccc2n1CC(F)(F)F` [Compound 1020A, 3-methoxy-4-{[3-(4-{[(2S,4R)-2-methyloxan-4-yl]amino}-1-(2,2,2-trifluoroethyl)-1H-indol-2-yl)prop-2-yn-1-yl]amino}benzamide], the “SC150 (concentration of the compound required to increase the DNA binding activity by 50%)” value was “+ (+ = 0 μM ≤ SC150 < 0.05 μM)”.
With `N#CCOc1cc(S(N)(=O)=O)ccc1NCC#Cc1cc2c(N[C@H]3CC[C@H](N4CCC5(CC4)COC5)CC3)cccc2n1CC(F)(F)F` [Compound 379A, 3-(cyanomethoxy)-4-{[3-(4-{[(1R,4R)-4-{2-oxa-7-azaspiro[3.5]nonan-7-yl}cyclohexyl]amino}-1-(2,2,2-trifluoroethyl)-1H-indol-2-yl)prop-2-yn-1-yl]amino}benzene-1-sulfonamide] the “SC150 (concentration of the compound required to increase the DNA binding activity by 50%)” value was “+ (+ = 0 μM ≤ SC150 < 0.05 μM)”.
With `CN1CCC(Nc2cccc3c2cc(C#CCNc2ccc(S(C)(=O)=O)cc2OCC#N)n3CC(F)(F)F)CC1` [Compound 489A, 2-{5-methanesulfonyl-2-[(3-{4-[(1-methylpiperidin-4-yl)amino]-1-(2,2,2-trifluoroethyl)-1H-indol-2-yl}prop-2-yn-1-yl)amino]phenoxy} acetonitrile] the “SC150 (concentration of the compound required to increase the DNA binding activity by 50%)” value was “+ (+ = 0 μM ≤ SC150 < 0.05 μM)”.
`NS(=O)(=O)c1ccc(NCC#Cc2cc3c(N[C@H]4CC[C@H](N5CC6(CCOCC6)C5)CC4)cccc3n2CC(F)(F)F)c(OCF)c1` [Compound 316A, 3-(fluoromethoxy)-4-{[3-(4-{[(1R,4R)-4-{7-oxa-2-azaspiro[3.5]nonan-2-yl}cyclo-hexyl]amino}-1-(2,2,2-trifluoroethyl)-1H-indol-2-yl)prop-2-yn-1-yl]amino}benzene-1-sulfonamide] was tested, and the “SC150 (concentration of the compound required to increase the DNA binding activity by 50%)” value was “+ (+ = 0 μM ≤ SC150 < 0.05 μM)”.
With `CNC(=O)c1ccc(NCC#Cc2cc3c(N[C@H]4CC[C@H](N5CC6CC(C5)O6)CC4)cccc3n2CC(F)(F)F)c(OC)c1` [Compound 402A, 3-methoxy-N-methyl-4-{[3-(4-{[(1R,4R)-4-{6-oxa-3-azabicyclo[3.1.1]heptan-3-yl}cyclohexyl]amino}-1-(2,2,2-trifluoroethyl)-1H-indol-2-yl)prop-2-yn-1-yl]amino}benzamide] the “SC150 (concentration of the compound required to increase the DNA binding activity by 50%)” value was “+ (+ = 0 μM ≤ SC150 < 0.05 μM)”.
In the case of `COCCNC(=O)c1ccc(NCC#Cc2cc3c(N[C@@H]4CCN(C)C[C@@H]4F)cccc3n2CC(F)(F)F)c(OC)c1` [Compound 945A, 4-{[3-(4-{[(3S,4R)-3-fluoro-1-methylpiperidin-4-yl]amino}-1-(2,2,2-trifluoroethyl)-1H-indol-2-yl)prop-2-yn-1-yl]amino}-3-methoxy-N-(2-methoxyethyl)benzamide], the “SC150 (concentration of the compound required to increase the DNA binding activity by 50%)” value is reported as “+ (+ = 0 μM ≤ SC150 < 0.05 μM)”.
With `COc1cc(S(N)(=O)=O)ccc1NCC#Cc1cc2c(N[C@H]3CC[C@H](N4CCCC(OC)C4)CC3)cccc2n1CC(F)(F)F` (stereo partly drawn) [Compound 358A, 3-methoxy-4-{[3-(4-{[(1R,4R)-4-(3-methoxypiperidin-1-yl)cyclohexyl]amino}-1-(2,2,2-trifluoroethyl)-1H-indol-2-yl)prop-2-yn-1-yl]amino}benzene-1-sulfonamide] the “SC150 (concentration of the compound required to increase the DNA binding activity by 50%)” value was “+ (+ = 0 μM ≤ SC150 < 0.05 μM)”.
With `CNC(=O)c1ccc(NCC#Cc2cc3c(N[C@H]4CC[C@@H](N5CC6(COC6)C5)CC4)cccc3n2CC(F)(F)F)c(OCCF)c1` [Compound 241A, 3-(2-fluoroethoxy)-N-methyl-4-{[3-(4-{[(1S,4S)-4-{2-oxa-6-azaspiro[3.3]heptan-6-yl}cyclohexyl]amino}-1-(2,2,2-trifluoroethyl)-1H-indol-2-yl)prop-2-yn-1-yl]amino}benzamide] the “SC150 (concentration of the compound required to increase the DNA binding activity by 50%)” value was “+ (+ = 0 μM ≤ SC150 < 0.05 μM)”.
In the case of `CNC(=O)c1ccc(NCC#Cc2cc3c(NC4CCN(CC(O)COC)CC4)cccc3n2CC(F)(F)F)c(OCC#N)c1` (stereo not drawn) [Compound 654A, 3-(cyanomethoxy)-4-{[3-(4-{[1-(2-hydroxy-3-methoxypropyl)piperidin-4-yl]amino}-1-(2,2,2-trifluoroethyl)-1H-indol-2-yl)prop-2-yn-1-yl]amino}-N-methylbenzamide], the “SC150 (concentration of the compound required to increase the DNA binding activity by 50%)” value is reported as “+ (+ = 0 μM ≤ SC150 < 0.05 μM)”.
In the case of `COc1cc(S(=O)(=O)N2CCN(C)CC2)ccc1NCC#Cc1cc2c(N[C@H]3CC[C@H](N(C)C)CC3)cccc2n1CC(F)(F)F` [Compound 76A, (1R,4R)-N^4-{2-[3-({2-methoxy-4-[(4-methylpiperazin-1-yl)sulfonyl]phenyl}amino)prop-1-yn-1-yl]-1-(2,2,2-trifluoroethyl)-1H-indol-4-yl}-N^1,N^1-dimethyl-cyclohexane-1,4-diamine], the “SC150 (concentration of the compound required to increase the DNA binding activity by 50%)” value is reported as “+ (+ = 0 μM ≤ SC150 < 0.05 μM)”.
In the case of `COCC(CN1CCC(Nc2cccc3c2cc(C#CCNc2ccc(S(C)(=O)=O)cc2OC)n3CC(F)(F)F)CC1)OC(C)=O` (stereo not drawn) [Compound 593A, 1-{4-[(2-{3-[(4-methanesulfonyl-2-methoxyphenyl)amino]prop-1-yn-1-yl}-1-(2,2,2-trifluoroethyl)-1H-indol-4-yl)amino]piperidin-1-yl}-3-methoxypropan-2-yl acetate], the “SC150 (concentration of the compound required to increase the DNA binding activity by 50%)” value is reported as “+ (+ = 0 μM ≤ SC150 < 0.05 μM)”.
